This test has as its target T1, Or22a/Orco (Drosophila melanogaster, UniProt P81909).
T1 construct: his-tag; made in house; host or cells: baculovirus-infected Sf9 cells
T1 sequence (P81909 1-397): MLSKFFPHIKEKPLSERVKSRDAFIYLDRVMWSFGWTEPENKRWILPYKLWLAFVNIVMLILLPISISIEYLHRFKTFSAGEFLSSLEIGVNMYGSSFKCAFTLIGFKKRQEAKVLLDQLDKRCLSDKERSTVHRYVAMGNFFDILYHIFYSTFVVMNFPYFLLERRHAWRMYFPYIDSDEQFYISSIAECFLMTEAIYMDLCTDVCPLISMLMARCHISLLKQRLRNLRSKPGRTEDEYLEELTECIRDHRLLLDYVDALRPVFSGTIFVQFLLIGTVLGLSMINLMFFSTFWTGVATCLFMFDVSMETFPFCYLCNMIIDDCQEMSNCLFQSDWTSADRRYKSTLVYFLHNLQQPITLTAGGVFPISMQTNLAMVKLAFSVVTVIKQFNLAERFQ
T1 sequence (Q9VNB5 1-486 partner): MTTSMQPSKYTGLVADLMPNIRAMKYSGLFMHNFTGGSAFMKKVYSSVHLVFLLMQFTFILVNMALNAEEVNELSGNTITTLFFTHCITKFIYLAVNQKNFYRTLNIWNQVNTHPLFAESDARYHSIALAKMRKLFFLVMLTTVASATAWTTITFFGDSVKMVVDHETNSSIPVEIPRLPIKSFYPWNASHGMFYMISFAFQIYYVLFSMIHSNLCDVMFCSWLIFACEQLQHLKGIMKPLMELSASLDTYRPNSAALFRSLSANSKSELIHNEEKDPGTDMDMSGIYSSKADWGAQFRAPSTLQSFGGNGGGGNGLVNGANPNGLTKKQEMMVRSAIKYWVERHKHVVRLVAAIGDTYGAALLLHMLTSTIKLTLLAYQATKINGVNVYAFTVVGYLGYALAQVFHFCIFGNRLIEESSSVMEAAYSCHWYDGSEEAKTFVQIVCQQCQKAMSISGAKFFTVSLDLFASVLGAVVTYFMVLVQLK
Briefly: EIS sensor, Or22a/Orco liposomes on gold electrode. It is filed as biochemical. On the procedure: Prior to their use, liposomes were defrosted on ice and then destabilized by incubating with 0.2% CHAPS for 15 min at room temperature. Then 200 μg of purified odorant receptor^28 was added to 1 mg of liposomes and rotated at 10 rpm for 1 h at room temperature. Excess detergent was removed by four additions of 25 mg of Bio-Beads SM-2 (Bio-Rad, USA) and incubation at 4° C. for 30 min, 2 h, overnight and a further 2 h respectively. The Bio-Beads were removed after each incubation period. The OrX or OrX/Orco integrated liposomes were pelleted by centrifugation at 100,000 g for 1 h, and were resuspended in 500 μL of rehydration buffer. Integration of OrXs and Orco into liposomes was assessed by density gradient ultracentrifugation (DGU) using Accudenz (Accurate Chemical & Scientific Corporation, USA). The integrated liposomes were brought to 40% Accudenz by the addition of an equal volume of 80% Accudenz solution, placed at the bottom of an ultra-centrifugation tube, and overlaid with 30% Accudenz solution, and DGU buffer (25 mM HEPES pH 7.5, 100 mM NaCl, 10% glycerol). The sample was then centrifuged at 100,000 g for 4 h at 4° C. Liposomes will float to the top of the gradient after Accudenz DGU due to their low density.
2 mM MHA was prepared by dissolving 1.36 μl of MHA in 5 ml ethanol (AR grade). The cleaned electrodes were immersed into MHA solution and incubated overnight. The next day, all the electrodes were washed with ethanol and deionised water thoroughly in order to remove the unreacted acid. A 2:1 mol:mol ratio of EDC:NHS (100 mM EDC, 50 mM NHS) was prepared in 2 ml PBS (pH=6.5) solution. Then, the electrodes were covered in 100 μl of this solution at 28° C. for an hour to activate the carboxylic (COOH) groups of the MHA.
PBS solution was prepared by immersing one tablet of PBS in 200 ml of milli-Q water (according to manufacturers instructions) and filtered using 0.2-μm syringe filter. The pH of the prepared buffer solution was measured with a pH meter. […]

The compound `CCCCCC(=O)OC` [methyl hexanoate] returned a limit of detection (EIS dose response, ligand 1 aM to 100 μM) of 0.1 fM. Also, the Sensitivity limit (Table 1, * estimated visually from dose response graph) is given as ~10^−16 M*. Moreover, for the setting “Table 3”, the “Detection Range” value was 10^−16-10^−5 M.

Values taken from patent US20210255184A1, “Biosensor Device and Methods” (The New Zealand Institute for Plant and Food Research …, priority 2018, published 2021).
